# Laboratory results: the supplement of paper PMC10307832
# How the values were obtained:
# Experiment in all cases: relative viability (nuclei count vs DMSO), 5 days (fraction); higher = more cells survive
# NCI-H1355 = tested on: NCI-H1355
# In short: (§1)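 Dosing by pin tool came one day after lung cancer cell lines were seeded in 1536-well plates, using either one drug or a fixed anchor-drug dose plus five library-drug doses (not always all listed) in √10 steps. After 5 days, nuclei were counted on 4× images. Relative viability is treated-well nuclei count divided by vehicle-well nuclei count, and values are medians of duplicate plates.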
# RERF-LC-KJ = tested on: RERF-LC-KJ
# In short: as §1
# CAL-12T = tested on: CAL-12T
# In short: as §1
# HCC-15 = tested on: HCC-15
# In short: as §1
# LK-2 = tested on: LK-2
# In short: as §1
# HCC-827 = tested on: HCC-827
# In short: as §1
# ABC-1 = tested on: ABC-1
# In short: as §1
# NCI-H2405 = tested on: NCI-H2405
# In short: as §1
# NCI-H1651 = tested on: NCI-H1651
# In short: as §1
# H3255 = tested on: H3255
# In short: as §1
# PC-3 [JPC-3] = tested on: PC-3 [JPC-3]
# In short: as §1
# PC-14 = tested on: PC-14
# In short: as §1
# EKVX = tested on: EKVX
# In short: as §1
# NCI-H1437 = tested on: NCI-H1437
# In short: as §1
# NCI-H1734 = tested on: NCI-H1734
# In short: as §1
# NCI-H322M = tested on: NCI-H322M
# In short: as §1
compound,measurement,setting,value
COc1cc(N2CCC(C(N)=O)CC2)ccc1Nc1nc(N)c(Cl)c(Nc2ccccc2S(=O)(=O)C(C)C)n1 [HG-5-88-01] + NC(=O)Nc1cc(-c2cccc(F)c2)sc1C(=O)N[C@H]1CCCNC1 [AZD7762] (partner 0.2 µM),relative viability,NCI-H1355; first compound 0.04 µM,0.714
same,relative viability,NCI-H1355; first compound 0.1265 µM,0.731
same,relative viability,NCI-H1355; first compound 0.4 µM,0.762
same,relative viability,NCI-H1355; first compound 1.265 µM,0.69
same,relative viability,NCI-H1355; first compound 4 µM,0.474
same,relative viability,RERF-LC-KJ; first compound 0.04 µM,0.995
same,relative viability,RERF-LC-KJ; first compound 0.1265 µM,1.07
same,relative viability,RERF-LC-KJ; first compound 0.4 µM,0.979
same,relative viability,RERF-LC-KJ; first compound 1.265 µM,0.747
same,relative viability,RERF-LC-KJ; first compound 4 µM,0.563
same,relative viability,CAL-12T; first compound 0.04 µM,0.71
same,relative viability,CAL-12T; first compound 0.1265 µM,0.607
same,relative viability,CAL-12T; first compound 0.4 µM,0.501
same,relative viability,CAL-12T; first compound 1.265 µM,0.539
same,relative viability,CAL-12T; first compound 4 µM,0.399
same,relative viability,HCC-15; first compound 0.04 µM,1.27
same,relative viability,HCC-15; first compound 0.1265 µM,0.595
same,relative viability,HCC-15; first compound 0.4 µM,1.15
same,relative viability,HCC-15; first compound 1.265 µM,1.3
same,relative viability,HCC-15; first compound 4 µM,1.04
same,relative viability,LK-2; first compound 0.04 µM,0.326
same,relative viability,LK-2; first compound 0.1265 µM,0.329
same,relative viability,LK-2; first compound 0.4 µM,0.301
same,relative viability,LK-2; first compound 4 µM,0.157
same,relative viability,HCC-827; first compound 0.04 µM,0.313
same,relative viability,HCC-827; first compound 0.1265 µM,0.184
same,relative viability,HCC-827; first compound 0.4 µM,0.167
same,relative viability,HCC-827; first compound 1.265 µM,0.129
same,relative viability,HCC-827; first compound 4 µM,0.123
same,relative viability,ABC-1; first compound 0.04 µM,0.663
same,relative viability,ABC-1; first compound 0.1265 µM,0.63
same,relative viability,ABC-1; first compound 0.4 µM,0.645
same,relative viability,ABC-1; first compound 1.265 µM,0.688
same,relative viability,ABC-1; first compound 4 µM,0.657
same,relative viability,NCI-H2405; first compound 0.04 µM,0.769
same,relative viability,NCI-H2405; first compound 0.1265 µM,0.659
same,relative viability,NCI-H2405; first compound 0.4 µM,0.569
same,relative viability,NCI-H2405; first compound 1.265 µM,0.638
same,relative viability,NCI-H2405; first compound 4 µM,0.504
same,relative viability,NCI-H1651; first compound 0.04 µM,0.463
same,relative viability,NCI-H1651; first compound 0.1265 µM,0.447
same,relative viability,NCI-H1651; first compound 0.4 µM,0.439
same,relative viability,NCI-H1651; first compound 1.265 µM,0.342
same,relative viability,NCI-H1651; first compound 4 µM,0.321
same,relative viability,H3255; first compound 0.04 µM,1.16
same,relative viability,H3255; first compound 0.1265 µM,1.01
same,relative viability,H3255; first compound 0.4 µM,0.916
same,relative viability,H3255; first compound 4 µM,0.699
same,relative viability,PC-3 [JPC-3]; first compound 0.04 µM,0.863
same,relative viability,PC-3 [JPC-3]; first compound 0.1265 µM,0.703
same,relative viability,PC-3 [JPC-3]; first compound 0.4 µM,0.732
same,relative viability,PC-3 [JPC-3]; first compound 1.265 µM,0.713
same,relative viability,PC-3 [JPC-3]; first compound 4 µM,0.344
same,relative viability,PC-14; first compound 0.04 µM,0.345
same,relative viability,PC-14; first compound 0.1265 µM,0.315
same,relative viability,PC-14; first compound 0.4 µM,0.343
same,relative viability,PC-14; first compound 1.265 µM,0.38
same,relative viability,PC-14; first compound 4 µM,0.0818
same,relative viability,EKVX; first compound 0.04 µM,0.673
same,relative viability,EKVX; first compound 0.1265 µM,0.622
same,relative viability,EKVX; first compound 0.4 µM,0.695
same,relative viability,EKVX; first compound 4 µM,0.527
same,relative viability,NCI-H1437; first compound 0.04 µM,1.13
same,relative viability,NCI-H1437; first compound 0.1265 µM,1.13
same,relative viability,NCI-H1437; first compound 0.4 µM,1.07
same,relative viability,NCI-H1437; first compound 4 µM,1.2
same,relative viability,NCI-H1734; first compound 0.04 µM,0.515
same,relative viability,NCI-H1734; first compound 0.1265 µM,0.514
same,relative viability,NCI-H1734; first compound 0.4 µM,0.52
same,relative viability,NCI-H1734; first compound 1.265 µM,0.511
same,relative viability,NCI-H1734; first compound 4 µM,0.724
same,relative viability,NCI-H322M; first compound 0.04 µM,0.665
same,relative viability,NCI-H322M; first compound 0.1265 µM,0.61
same,relative viability,NCI-H322M; first compound 0.4 µM,0.465
same,relative viability,NCI-H322M; first compound 1.265 µM,0.454
same,relative viability,NCI-H322M; first compound 4 µM,0.466
